ChEMBL document CHEMBL1201862, “PubChem BioAssay data set” (2004)
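Each compound was tested at five concentrations against cells in 96-well plates for 48 hours. Here, GI50 denotes the concentration required for 50% inhibition of growth.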 Active and inactive are the calls of the source. Cut-off read from the data, not from the text of the source: active = GI50 up to about 1.1 µM and inactive = higher.

Legend:
Assay in all cases: DTP human tumour cell line panel, 48 h
[1] = tested on: A549
[2] = tested on: CAKI-1
[3] = tested on: CCRF-CEM
[4] = tested on: COLO 205
[5] = tested on: HOP-62
[6] = tested on: NCI-H23
[7] = tested on: OVCAR-3
[8] = tested on: OVCAR-8
[9] = tested on: RPMI-8226
[10] = tested on: SK-MEL-2
[11] = tested on: SK-OV-3
[12] = tested on: SN12C
[13] = tested on: SNB-19
[14] = tested on: SW-620
[15] = tested on: U-251
[16] = tested on: UO-31
[17] = tested on: HL-60
[18] = tested on: NCI-H522
[19] = tested on: OVCAR-4

Measured: GI50

COc1cc(C(=O)N(C(=O)N2CCCCC2)c2ccccc2)cc(OC)c1OC
inactive: [1] > 100 µM | [2] > 100 µM | [3] > 100 µM | [4] > 100 µM | [5] > 100 µM | [6] > 100 µM | [7] > 100 µM | [8] > 100 µM | [9] 89.1 µM | [10] > 100 µM | [11] > 100 µM | [12] > 100 µM | [13] > 100 µM | [14] > 100 µM | [15] > 100 µM | [16] > 100 µM

O=C(CC1(O)C(=O)Nc2ccccc21)c1ccc(Cl)c(Cl)c1 (stereo not drawn)
inactive: [1] > 100 µM | [2] > 100 µM | [3] 63.8 µM | [4] > 100 µM | [17] 22.8 µM | [6] > 100 µM | [18] > 100 µM | [19] > 100 µM | [9] > 100 µM | [10] > 100 µM | [11] > 100 µM | [12] > 100 µM | [13] > 100 µM | [14] > 100 µM | [15] > 100 µM | [16] > 100 µM

C=CCc1cc(OC)c2c(c1)C(OC)CC(c1ccc(OC)c(OC)c1)O2 (stereo not drawn)
inactive: [1] > 100 µM | [2] 94.8 µM | [3] > 100 µM | [4] > 100 µM | [17] 75 µM | [5] > 100 µM | [7] > 100 µM | [19] > 100 µM | [8] > 100 µM | [9] 38 µM | [10] > 100 µM | [11] > 100 µM | [12] > 100 µM | [13] > 100 µM | [14] > 100 µM | [15] > 100 µM | [16] 42.3 µM

CC1=NOC(=O)/C1=C/c1ccccc1O
inactive: [1] > 100 µM | [2] > 100 µM | [3] > 100 µM | [4] > 100 µM | [17] > 100 µM | [5] > 100 µM | [6] > 100 µM | [18] > 100 µM | [7] > 100 µM | [19] > 100 µM | [8] > 100 µM | [10] > 100 µM | [11] > 100 µM | [12] > 100 µM | [13] > 100 µM | [14] 20.4 µM | [15] > 100 µM | [16] > 100 µM

COC(=O)Nc1nc2cc(Br)ccc2[nH]1
inactive: [1] 50.8 µM | [3] 32.2 µM | [4] 23.8 µM | [17] 13.3 µM | [5] 57.3 µM | [6] 32.7 µM | [18] 14.4 µM | [7] 28.5 µM | [19] > 100 µM | [8] 32.6 µM | [9] 51.9 µM | [10] 16.1 µM | [11] 27.5 µM | [12] > 100 µM | [13] > 10 µM | [14] 37 µM | [15] 22.8 µM | [16] > 100 µM

C/N=C1\CC2c3cc(OC)c(OC)cc3CCN2C2=C1C(=O)CC(C)(C)C2 (stereo not drawn)
inactive: [1] > 100 µM | [2] > 100 µM | [3] > 100 µM | [4] > 100 µM | [17] > 100 µM | [6] > 100 µM | [18] > 100 µM | [7] > 100 µM | [8] > 100 µM | [10] > 100 µM | [12] > 100 µM | [13] > 100 µM | [14] > 100 µM | [15] > 100 µM | [16] > 100 µM

COc1c(C)cc2c(C(C)C)c(O)c(O)c(C=O)c2c1O
inactive: [1] 31.7 µM | [3] 18.4 µM | [4] 16.4 µM | [17] 25.9 µM | [6] 18.3 µM | [18] 25.6 µM | [7] 18.9 µM | [19] 17.2 µM | [8] 27.4 µM | [9] 37.9 µM | [10] 15.8 µM | [11] 29.9 µM | [12] 27.7 µM | [13] 35.7 µM | [14] 40.6 µM | [15] 18 µM | [16] 31.3 µM

O=c1/c(=C/c2cccc3ccccc23)sc2nc3ccccc3n12
inactive: [1] > 100 µM | [2] > 100 µM | [4] > 100 µM | [17] > 100 µM | [5] > 100 µM | [6] > 100 µM | [18] > 100 µM | [7] > 100 µM | [19] > 100 µM | [8] > 100 µM | [10] > 100 µM | [12] > 100 µM | [13] > 100 µM | [14] > 100 µM | [15] > 100 µM | [16] > 100 µM

NN/C(Cc1ccccc1)=N\NO
inactive: [1] > 100 µM | [2] > 100 µM | [3] 39.8 µM | [4] > 100 µM | [17] > 100 µM | [6] 57.4 µM | [7] > 100 µM | [19] > 100 µM | [10] > 100 µM | [13] > 100 µM | [14] > 100 µM

N#Cc1c(-c2ccc(Cl)cc2)c(C#N)c(=O)n(NS(=O)(=O)c2ccccc2)c1S
inactive: [1] 29.4 µM | [2] 26.2 µM | [3] 5.79 µM | [4] 30.5 µM | [17] 16.6 µM | [6] 39.3 µM | [18] 18.2 µM | [7] 23.1 µM | [19] 56.6 µM | [8] 19.9 µM | [9] 23.9 µM | [10] 47.3 µM | [11] 87.5 µM | [12] 25.2 µM | [14] 26.2 µM | [15] 23.1 µM | [16] 16.2 µM

O=c1/c(=C/c2ccccc2F)sc2nc3ccccc3n12
inactive: [1] > 100 µM | [2] > 100 µM | [3] > 100 µM | [17] > 100 µM | [6] > 100 µM | [18] 92.7 µM | [7] > 100 µM | [19] > 100 µM | [8] > 100 µM | [9] > 100 µM | [10] > 100 µM | [12] > 100 µM | [13] > 100 µM | [14] > 100 µM | [15] 38.7 µM | [16] > 100 µM

CC[C@@H]1C[C@H]2CC3c4[nH]c5ccc(O)cc5c4CCN(C2)C31
inactive: [1] > 100 µM | [2] > 100 µM | [3] > 100 µM | [4] > 100 µM | [17] > 100 µM | [5] > 100 µM | [6] > 100 µM | [7] > 100 µM | [8] > 100 µM | [9] > 100 µM | [10] > 100 µM | [12] > 100 µM | [13] > 100 µM | [14] > 100 µM | [15] > 100 µM | [16] > 100 µM
